# Activity calls are given as the source filed them. The rule behind the calls is not given here.
# Key:
# [1] = test system: BJAB; experiment: Induction of apoptosis of human BJAB cells as measured by DNA fragmentation at 100 uM after 72 hrs; assay type: functional
# [2] = test system: Leukemia cell; experiment: Induction of apoptosis in ALL cells at 100 uM after 60 hrs; assay type: functional, cell-based; details: Homo sapiens
# [3] = test system: BJAB; experiment: Antiproliferative activity against human BJAB cells after 24 hrs; assay type: functional
# [4] = test system: BJAB; experiment: Loss of mitochondrial membrane potential in human BJAB cells at 100 uM; assay type: functional, cell-based
# [5] = test system: BJAB; experiment: Antiproliferative activity against human BJAB cells after 48 hrs; assay type: functional
# [6] = test system: BJAB; experiment: Induction of mitochondrial permeability transition in human BJAB cells after 48 hrs; assay type: functional, cell-based
# [7] = test system: Leukemia cell; experiment: Induction of apoptosis in AML cells at 100 uM after 60 hrs; assay type: functional, cell-based; details: Homo sapiens
smiles,measurement,setting,value
C=C1CC[C@@H]2[C@](C)(CCC[C@]2(C)C(=O)OC)[C@H]1CCC1=CCOC1=O [PINUSOLIDE],Activity,[1],70%
same,Activity,[2],Active
same,Activity,[3],44%
same,Activity,[4],Active
same,Activity,[5],86%
same,Activity,[6],Dose-dependent effect
same,Activity,[7],Active
